Results from US8771973B2, “Methods for treating bleeding disorders using sulfated polysaccharides” (Baxter Healthcare S.A., priority 2004, dated 2014).
“Also recorded” adds a separate entry of the source.

Assays:
[1] = target: T1, TFPI (Homo sapiens, UniProt P10646); assay: dPT assay, inhibition of TFPI activity in Hem-A plasma, TFPI preincubated with NASP; type: biochemical; conditions: for clotting time, dPT: Hem-A + TFPI, plasma alone 44, + TFPI 151 seconds; for TFPI-neutralizing activity: FIGS. 4-6 / data not shown
T1 construct: purchased American Diagnostica (Stamford, Conn.)
T1 sequence (P10646 29-304): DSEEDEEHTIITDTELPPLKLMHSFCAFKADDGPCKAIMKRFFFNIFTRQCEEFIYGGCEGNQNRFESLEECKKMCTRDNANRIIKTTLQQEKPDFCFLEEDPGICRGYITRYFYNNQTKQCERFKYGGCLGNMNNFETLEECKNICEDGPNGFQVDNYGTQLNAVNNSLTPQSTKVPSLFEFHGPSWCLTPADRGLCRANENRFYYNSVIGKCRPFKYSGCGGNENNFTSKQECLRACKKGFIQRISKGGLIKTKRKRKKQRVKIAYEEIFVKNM
Method: (§1) The dPT assay used was a modified standard clinical PT assay (Nordfang et al. (1991) Thromb Haemost 66:464-467; Welsch et al. (1991) Thrombosis Research 64: 213-222). SIMPLASTIN EXCEL thromboplastin reagent (Organon Teknika) was reconstituted with the manufacturer's diluent and further diluted 1:100 in 0.9% saline. The thromboplastin reagent, 25 mM CaCl2, and plasma samples were pre-warmed to 37° C. before initiating the assay. 100 μl of thawed plasma was aliquoted into microcentrifuge tubes. […] 100 μl of the diluted thromboplastin reagent and 100 μl of 25 mM CaCl2 were added to fibrin cups (Fisher) prewarmed to 37° C. 100 μl of plasma (normal or hemophilic) containing the test agent or saline control was added to the fibrin cups containing the thromboplastin reagent and CaCl2 to initiate clotting. The time for plasma clotting was measured with a BBL FIBROSYSTEM fibrometer.
(§2) Inhibition of TFPI activity by NASPs was assessed in dPT clotting assays with normal or hemophilic plasma and added recombinant TFPI. Diluted recombinant TFPI was preincubated with NASPs for 5 minutes at room temperature before plasma was added. After addition of plasma, the mixture was incubated for an additional 25 minutes followed by dPT initiation.

[2] = system: Hem-A plasma; assay: dPT assay, Hem-A plasma in absence of exogenous TFPI; type: biochemical, human; conditions: dPT
Method: as §1
The ability of NASPs to accelerate clotting of factor-deficient plasma in the absence of TFPI supplementation was also tested in dPT assays. A procoagulant response, if observed, may be related to neutralization of endogenous TFPI activity, which is present in human plasma at approximately 100 ng/ml (Nordfang et al., supra), largely associated with lipoprotein or platelets (Broze et al. (1992) Semin. Hematol. 29:159-169; Broze et al. (2003) J. Thromb. Haemost. 1:1671-1675).
The ability of NASPs to accelerate clotting of Hem-A plasma in the absence of exogenous TFPI was tested. Fucoidan or PPS were titrated into Hem A plasma and dPT assays were performed. Additionally, the dose-response to factor VIIa was analyzed as a positive control for amplifying extrinsic pathway activation.

[3] = target: T1, TFPI; assay: dPT assay, inhibition of TFPI activity in Hem-A plasma without preincubation; type: biochemical; conditions: for clotting time, dPT: Hem-A + TFPI, no preincubation, HemA + TFPI 183, alone 45 seconds
Method: as §1
Experiments were repeated without a preincubation of the sulfated polysaccharides with TFPI prior to exposure to plasma. To extend the stringency of the test for NASP inhibition of TFPI activity, TFPI was added to the plasma before the NASP was added.

[4] = system: Hem-A plasma containing 1.25% FACT plasma; assay: aPTT assay, NASPs in 1.25% FACT diluted in Hem-A plasma; type: biochemical, human
Method: Activated Partial Thromboplastin Time (aPTT) Assay The aPTT assay was performed as described previously with modifications (PDR Staff Physicians' Desk Reference. 2004, Anderson Lo, Barrowcliffe, T. W., Holmer, E., Johnson, E. A., Sims, G. E. C. Thromb. Res. 1976; 9:575-580). 25 mM CaCl2 and fibrin cups (Fisher) were pre-warmed to 37° C. 0.1 ml of thawed human plasma (normal or hemophilic) was added to warmed test tubes. 5 μl of saline (e.g. Sigma) or 5 μl of test agent (e.g., NASP) dissolved in saline was incubated with 95 μl of plasma for 30 minutes at room temperature. APTT reagent (e.g. Organon Teknika) was reconstituted in 3 ml distilled water and 0.1 ml of the reconstituted solution containing the APTT reagent was added to each test tube. 0.2 ml of plasma containing the test agent or saline control and aPTT reagent were transferred from test tubes to pre-warmed fibrin cups and incubated for 2-3 minutes. 0.1 ml of pre-warmed 25 mM CaCl2 was added to initiate clotting, and the time for plasma clotting was measured with a BBL FIBROSYSTEM fibrometer.
The effect of NASPs on the clotting time of plasma was determined as follows: 5 μl of a NASP was added to 95 μl of 1.25% FACT diluted in human Hem-A plasma and incubated at room temperature for 30 minutes. aPTT assays were performed to determine plasma clotting time as described in Example 1.

[5] = system: Hem-A plasma; assay: dPT assay, anti-coagulant activity of NASPs in Hem-A plasma; type: biochemical, human; conditions: for clotting time, dPT: Hem-A plasma without NASP 41.5 seconds; for prolongation of clotting time: concentrations>5000 nM; for inherent anticoagulant activity: concentrations up to 5000 nM
Method: as §1
Test compounds were diluted to 100 μM, 10 μM, 2 μM and 200 nM. For each test compound, 12.5 μl of a diluted solution containing the test compound was added to 237.5 μl of Hem-A plasma and incubated at room temperature. 100 μl of plasma containing the test compound was removed for dPT assays of plasma clotting time as described in Example 2.

[6] = target: T1, TFPI; assay: dPT assay, inhibition of TFPI activity in Hem-B plasma, TFPI preincubated with NASP; type: biochemical; conditions: for clotting time, dPT: Hem-B + TFPI, plasma alone 46, + TFPI 101 seconds
Method: as §1, §2
The acceleration of plasma clotting by the NASPs in the presence of TFPI was also tested in Hem-B and normal plasma.

[7] = system: Hem-A plasma; assay: dPT assay, TFPI titrated into FVIII deficient (Hem-A) plasma; type: biochemical, human
Method: as §1
A 100 μg/mL TFPI stock solution (American Diagnostica, Stamford, Conn.) was sequentially diluted in saline to generate TFPI solutions at the following concentrations: 20, 15, 10, 6, and 2 μg/mL. 5 μl of these TFPI dilutions were mixed with 95 μl of FVIII deficient plasma and incubated at room temperature for 30 minutes. dPT assays were performed as follows: SIMPLASTIN thromboplastin was diluted 1:100 in saline and prewarmed to 37° C. 25 mM CaCl2 and 100 μl of test plasma containing TFPI was prewarmed to 37° C. 100 μl SIMPLASTIN thromboplastin and 100 μl of CaCl2 were mixed and clotting time was measured using a BBL fibrometer.

Row | Substance | TFPI-neutralizing activity ([1]; dPT) | acceleration of hemophilic plasma clotting in the absence of TFPI addition [2] | clotting time, aPTT ([4]; 0.8 nM) [s] | clotting time, aPTT ([4]; 4 nM) [s] | clotting time, aPTT ([4]; 20 nM) [s] | clotting time, aPTT ([4]; 100 nM) | clotting time, aPTT ([4]; 500 nM) | clotting time, dPT ([5]; 10 nM) [s] | clotting time, dPT ([5]; 100 nM) [s] | clotting time, dPT ([5]; 500 nM) [s] | clotting time, dPT ([5]; 5000 nM) [s] | prolongation of clotting time ([5]; dPT) | inherent anticoagulant activity [5] | also measured
1 | N-Acetyl-Heparin [NAH] | only weak TFPI-neutralizing activity | had no activity; also recorded: did not accelerate hemophilic plasma clotting times | 70 | 69 | 67 | 74 s | 85 s | 38 | 37 | 36 | 38 | little or no prolongation of clotting time | – | clotting time, dPT ([1]; 0.16 nM, preincubation): 144 s; clotting time, dPT ([1]; 0.8 nM, preincubation): 158 s; clotting time, dPT ([1]; 4 nM, preincubation): 160 s; clotting time, dPT ([1]; 20 nM, preincubation): 141 s; clotting time, dPT ([1]; 100 nM, preincubation): 99 s; clotting time, dPT ([1]; 500 nM, preincubation): 84 s; concentration that accelerates (shortens) clotting of Hem-A plasma containing TFPI ([1]; dPT, preincubation): approximately 100 nM; clotting time, dPT ([3]; 0.8 nM): 165 s; clotting time, dPT ([3]; 4 nM): 180 s; clotting time, dPT ([3]; 20 nM): 184 s; clotting time, dPT ([3]; 100 nM): 125 s; clotting time, dPT ([3]; 500 nM): 89 s; concentration producing approximately 50% prolongation in clotting time, fold higher than for heparin ([4]; APTT, Hem-A plasma): > 500 fold; clotting time, dPT ([6]; 0.16 nM): 102 s; clotting time, dPT ([6]; 0.8 nM): 101 s; clotting time, dPT ([6]; 4 nM): 106 s; clotting time, dPT ([6]; 20 nM): 106 s; clotting time, dPT ([6]; 100 nM): 94 s; clotting time, dPT ([6]; 500 nM): 68 s
2 | De-N-Sulfated-Acetylated-Heparin [De-N—S-AH] | did not exhibit any TFPI-neutralizing activity | failed to accelerate clotting times | – | – | – | – | – | 39 | 37 | 40 | 55 | – | failed to show inherent anticoagulant activity | –
3 | N-Acetyl-de-O-Sulfated-Heparin [NA-de-O-SH] | did not exhibit any TFPI-neutralizing activity | failed to accelerate clotting times | – | – | – | – | – | 40 | 40 | 40 | 40 | little or no prolongation of clotting time | failed to show inherent anticoagulant activity | –
4 | Sodium Heparin | – | – | 70 | 70 | 200 | Not clotted | Not clotted | 40 | 92 | 400 | – | – | – | effect on clotting time of Hem-A plasma containing TFPI ([1]; dPT, not shown): only prolonged clotting times; anticoagulant activity ([5]; dPT, concentrations exceeding 10 nM): markedly anticoagulant
5 | TFPI: human recombinant TFPI from American Diagnostica | – | – | – | – | – | – | – | – | – | – | – | – | – | clotting time of plasma with TFPI ([1]; TFPI approximately 0.5 μg/ml, from approximately 40 seconds, depending on experiment and source of plasma): 100 to 200 s; Clotting time of Hem-A plasma + TFPI ([1]; no NASP, TFPI approximately 0.5 μg/ml, plasma alone 44 seconds): Clotting time of Hem-A plasma + TFPI is 151 seconds.; Clotting time ([7]; TFPI 0.1 μg/mL in plasma): 60 s; Clotting time ([7]; TFPI 0.3 μg/mL in plasma): 94 s; Clotting time ([7]; TFPI 0.5 μg/mL in plasma): 98 s; Clotting time ([7]; TFPI 0.75 μg/mL in plasma): 173 s; Clotting time ([7]; TFPI 1 μg/mL in plasma): >200 s; Clotting time HemA + TFPI ([3]; no NASP, Hem-A alone 45 seconds): HemA + TFPI: 183 seconds; Clotting time of Hem-B + TFPI ([6]; no NASP, Hem-B alone 46 seconds): Clotting time of Hem-B + TFPI: 101 seconds.
6 | De-N-Sulfated-Heparin [De-N-SH] | did not exhibit any TFPI-neutralizing activity | failed to accelerate clotting times | – | – | – | – | – | 40 | 38 | 38 | 41 | little or no prolongation of clotting time | failed to show inherent anticoagulant activity | –
